Laboratory results as given in article PMC5848512, “The Penicillium chrysogenum transporter PcAraT enables high-affinity, glucose-insensitive L-arabinose transport in Saccharomyces cerevisiae” (Biotechnology for Biofuels, 2018).

Experiments:
PcAraT = molecular target: T1, PcAraT (Penicillium rubens, UniProt B6HE12); test: inhibition of […]-L-arabinose uptake in transporter-deleted yeast cells; format: cell-based
T1 construct: gene Pc20g01790; full-length ORF, codon-pair optimized synthetic gene, pRS313-PcaraT (HXT7 promoter) in S. cerevisiae DS68625 (hxt1-7, gal2 deleted)
T1 sequence (B6HE12 1-511): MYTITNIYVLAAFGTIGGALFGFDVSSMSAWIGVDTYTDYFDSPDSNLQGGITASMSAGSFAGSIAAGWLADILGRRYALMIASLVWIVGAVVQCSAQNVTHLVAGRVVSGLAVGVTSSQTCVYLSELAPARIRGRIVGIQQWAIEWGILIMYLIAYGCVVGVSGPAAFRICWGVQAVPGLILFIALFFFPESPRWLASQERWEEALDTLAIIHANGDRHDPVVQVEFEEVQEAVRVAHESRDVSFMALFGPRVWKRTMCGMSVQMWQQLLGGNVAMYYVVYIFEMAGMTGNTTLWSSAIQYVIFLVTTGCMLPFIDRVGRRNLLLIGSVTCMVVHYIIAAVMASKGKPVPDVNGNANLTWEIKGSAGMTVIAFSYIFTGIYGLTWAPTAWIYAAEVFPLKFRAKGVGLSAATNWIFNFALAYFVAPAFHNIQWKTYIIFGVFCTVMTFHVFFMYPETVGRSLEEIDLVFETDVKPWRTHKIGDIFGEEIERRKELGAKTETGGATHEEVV

Gal2 = molecular target: T2, Gal2 (Saccharomyces cerevisiae, UniProt P13181); test: as above; format: cell-based
T2 construct: full-length, pRS313-GAL2 (HXT7 promoter) in S. cerevisiae DS68625 (hxt1-7, gal2 deleted)
T2 sequence (P13181 1-574): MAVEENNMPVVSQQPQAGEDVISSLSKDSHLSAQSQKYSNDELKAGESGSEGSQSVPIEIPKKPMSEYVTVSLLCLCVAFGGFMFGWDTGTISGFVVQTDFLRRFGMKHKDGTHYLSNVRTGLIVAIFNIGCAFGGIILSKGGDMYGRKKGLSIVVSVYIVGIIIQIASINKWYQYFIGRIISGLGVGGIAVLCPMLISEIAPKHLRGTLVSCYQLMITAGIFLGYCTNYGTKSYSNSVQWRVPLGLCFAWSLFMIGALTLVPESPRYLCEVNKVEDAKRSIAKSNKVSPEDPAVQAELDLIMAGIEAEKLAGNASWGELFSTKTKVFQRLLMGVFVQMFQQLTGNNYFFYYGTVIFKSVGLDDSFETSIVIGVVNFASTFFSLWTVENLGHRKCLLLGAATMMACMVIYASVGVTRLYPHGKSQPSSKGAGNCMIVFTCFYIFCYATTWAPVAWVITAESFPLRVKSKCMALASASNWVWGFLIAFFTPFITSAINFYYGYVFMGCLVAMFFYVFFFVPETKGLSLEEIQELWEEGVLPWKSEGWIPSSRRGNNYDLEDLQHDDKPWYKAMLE

Row | SMILES | inhibition at 100000 µM (PcAraT) [%] | inhibition at 100000 µM (Gal2) [%]
1 | OC[C@H]1OC(O)[C@H](O)[C@@H](O)[C@@H]1O (stereo partly drawn) [D-glucose] | 63 | 85
2 | OC1OC[C@@H](O)[C@H](O)[C@H]1O (stereo partly drawn) [D-xylose] | 22 | 29
